Experimental data taken from patent US20240336566A1, “CRYSTALLINE FORMS OF A COMPOUND FOR THE TARGETED DEGRADATION OF THE ANDROGEN RECEPTOR” (Arvinas Operations, Inc., priority 2023, published 2024).
Like-named read-outs stand apart in the source and are kept apart here.

Experiment: Primary salt screen: XRPD post temperature cycling/evaporation, post drying and post storage at 40° C./75% RH
Type: physicochemical
Procedure: • 30 mg samples of Compound A were weighed out into 2 mL screw cap sample vials for 96 experiments. To these, 200 μL of the appropriate solvent system was added to dissolve the material or form a slurry. See Table 16 for the solvent systems selected for the primary salt screen.
• 1.05 eq. of solid counterions were weighed into six separate vials each and 1 molar stock solutions were prepared for liquid counterions in 5 mL of THF. See Table 17 for selected counterions and mass/volume needed for 1.05 eq. additions. • 100 μL of the appropriate solvent was added to the solid counterions.
The solution/slurry of counterion was added to the solution/slurry of the free base material.
• The samples were placed in an incubator shaker to temperature cycle between ambient and 40° C. over 4 hour cycles. • After ca. 72 hours of temperature cycling, observations were noted, see Table 19.
• Where slurries were obtained, the solids were isolated via centrifugation. Solids and gels were analyzed by XRPD.
Any samples that were clear solutions after temperature cycling were left to evaporate at ambient conditions. See Table 20 for observations made after evaporation. Solids obtained through evaporation were analyzed by XRPD.
• The samples obtained from temperature cycling were dried under vacuum at 40° C. for ca. 20 hours while the samples obtained from evaporation were dried under vacuum at 40° C. for ca. 4 hours. […]

[1] = Compound A + 1.05 eq. counterion (= label), DMSO:Water (50:50 % v/v), stored ca. 20 hours
[2] = Compound A + 1.05 eq. counterion (= label), 1,4-Dioxane
[3] = Compound A + 1.05 eq. counterion (= label), 1,4-Dioxane, dried under vacuum at 40° C.
[4] = Compound A + 1.05 eq. counterion (= label), 1,4-Dioxane, stored ca. 20 hours
[5] = Compound A + 1.05 eq. counterion (= label), DCM
[6] = Compound A + 1.05 eq. counterion (= label), DCM, dried under vacuum at 40° C.
[7] = Compound A + 1.05 eq. counterion (= label), DCM, stored ca. 20 hours
[8] = Compound A + 1.05 eq. counterion (= label), DMSO:Water (50:50 % v/v)
[9] = Compound A + 1.05 eq. counterion (= label), THF
[10] = Compound A + 1.05 eq. counterion (= label), THF:Water (98:2 % v/v)
[11] = Compound A + 1.05 eq. counterion (= label), THF, dried under vacuum at 40° C.
[12] = Compound A + 1.05 eq. counterion (= label), THF, stored ca. 20 hours
[13] = Compound A + 1.05 eq. counterion (= label), DCM:Methanol (50:50 % v/v)
[14] = Compound A + 1.05 eq. counterion (= label), DCM:Methanol (50:50 % v/v), dried under vacuum at 40° C.
[15] = Compound A + 1.05 eq. counterion (= label), DCM:Methanol (50:50 % v/v), stored ca. 20 hours
[16] = Compound A + 1.05 eq. counterion (= label), DMSO:Water (50:50 % v/v), dried under vacuum at 40° C.
[17] = Compound A + 1.05 eq. counterion (= label), THF:Water (98:2 % v/v), dried under vacuum at 40° C.
[18] = Compound A + 1.05 eq. counterion (= label), THF:Water (98:2 % v/v), stored ca. 20 hours

Row | SMILES | XRPD results post 40° C./75% RH [1] | XRPD results post temperature cycling and evaporation [2] | XRPD results post drying [3] | XRPD results post 40° C./75% RH [4] | XRPD results post temperature cycling and evaporation [5] | XRPD results post drying [6] | XRPD results post 40° C./75% RH [7] | XRPD results post temperature cycling and evaporation [8] | XRPD results post temperature cycling and evaporation [9] | XRPD results post temperature cycling and evaporation [10] | XRPD results post drying [11] | XRPD results post 40° C./75% RH [12] | XRPD results post temperature cycling and evaporation [13] | XRPD results post drying [14] | XRPD results post 40° C./75% RH [15] | XRPD results post drying [17] | XRPD results post 40° C./75% RH [18] | further results
1 | CC(=O)O [Acetic acid] | A t h |  |  |  |  |  |  |  |  |  |  |  |  |  |  |  |  | 
2 | O=S(=O)(O)c1ccccc1 [Benzenesulfonic acid] | A e h | A t | A t | A t | A e | A e | A e | A e | A t | S e | A t | A t |  |  |  |  |  | 
3 | O=C(O)c1ccccc1 [Benzoic acid] |  |  |  |  | A e | A e | A e |  |  |  |  |  |  |  |  |  |  | 
4 | O=C(O)CC(O)(CC(=O)O)C(=O)O [Citric acid] | A t | A t | A t | A t | A e | A e | A e | A t | A e | A e | A e | A e | A e | A e | A e | A e | A e | XRPD results post drying [16]: A t
5 | O=C(O)/C=C/C(=O)O [Fumaric acid] |  | S t * | A t d | A t | A e | A e | A e |  | A e |  | A e | A e | A e | A e | A e |  |  | 
6 | Cl [Hydrochloric acid] |  |  |  |  | t S |  |  |  |  |  |  |  | t S |  |  |  |  | 
7 | O=C(O)/C=C\C(=O)O [Maleic acid] | A t | S t * |  | A t h | C e | A e d | A e | A t | A e | A e | A e | A e | A e | A e | A e | A e | A e | XRPD results post drying [16]: A t
8 | O=C(O)CC(=O)O [Malonic acid] |  |  |  |  | A e | A e | A e | A t | A e | A e | A e | A e | A e | A e | A e | A e | A e | 
9 | CS(=O)(=O)O [Methanesulfonic acid] | A t | A t | A t | A t | A e | A e | A e | A t |  | A e |  |  |  |  |  | A e | A e | XRPD results post drying [16]: A t
10 | O=P(O)(O)O [Phosphoric acid] |  | A t | A t | A t | S t * |  | A t h |  | S t | S t |  |  | S t * |  |  |  |  | 
11 | O=C(O)CCC(=O)O [Succinic acid] |  |  |  |  | C e | A e d | C e h | A t |  |  |  |  |  |  |  |  |  | 
12 | O=S(=O)(O)O [Sulfuric acid] |  |  |  |  |  |  |  |  |  |  |  |  |  |  |  |  |  | XRPD results post 40° C./75% RH: A t and A e; XRPD results post drying: A t and A e; XRPD results post temperature cycling and evaporation: A t and A e
13 | N[C@@H](CCC(=O)O)C(=O)O [l-Glutamic] |  |  |  |  | C e | C e | C e | A t |  |  |  |  |  |  |  |  |  | 
14 | O=C(O)C[C@H](O)C(=O)O [l-Malic acid] |  |  |  |  | A e | A e | A e | A t | A e |  | A e | A e |  |  |  |  |  | 
15 | O=C(O)C(O)C(O)C(=O)O (stereo not drawn) [l-Tartaric acid] |  | A t | A t | A t | A e | A e | A e | A t | A e | A e | A e | A e | A e | A e | A e | A e | A e | 
